Measured values from US12480166B2, “Multiplexed fuel analysis” (ANDE Corporation, priority 2018, dated 2025).

Legend:
[1] = system: filamentous fungi 18S, T3; assay: General 6-plex Fuel Assay (multiplexed PCR after centrifugation/DNaseI processing) of commercial fleet diesel samples before and after biocide treatment; type: cell-based; conditions: real-world diesel samples from commercial fleets, after vs before biocide treatment; FIG. 41
Description: (§1) The approach relies in part on centrifugation to allow phase separation and to separate the intact microbial cells and cellular debris from the exposed, extracellular genomic DNA material. The extracellular material is then selectively degraded with addition of an enzyme, DNaseI. Note than DNA degradation enzymes in addition to DNAseI can be used in this approach-many such enzymes are available including restriction enzymes (particularly frequent cutters), other endonucleases, and exonucleases. DNA may also be degraded using physical methods.
(§2) Mock fuel samples were prepared by adding 200 μl of buffer (e.g. 1×PBS, or a preferred solution to prevent cells from lysing while providing an optimal chemical environment for downstream processing) to 800 μl of diesel fuel (previously determined to be negative for microbial contamination) and spiked with 500 ng of purified Bacillus DNA and live Pseudomonas cells (approximately […]). This allowed clear distinction between DNA present extracellularly and intracellularly. The resulting sample was mixed by multiple inversions and then subjected to centrifugation at 20,000×g for 2 minutes to pelletize the live Pseudomonas cells. […]
(§3) Biocide performance was also measured using an ATP assay for measurement of total microbial load. […]

general bacteria 16S,T1 = assay: as above; type: cell-based; conditions: real-world diesel samples from commercial fleets, after vs before biocide treatment; FIG. 41
Description: as §1, §2, §3

N#CSCSC#N [biocide, methylenebisthiocyanate]
filamentous fungi 18S, T3 signal after biocide treatment [1]: loss | decline in general bacteria 16S,T1 signal after biocide treatment (general bacteria 16S,T1): approximately 75%
